The source of these data is patent US11612586B2, “Indole regulation of antigen presenting cells” (THE TEXAS A&M UNIVERSITY SYSTEM, priority 2016, dated 2023).

One experiment has as its system TNF. Briefly: TNF production in BMDMs, intracellular staining, flow cytometry. It is filed as cell-based, mouse. The protocol: BMDMs were treated with indole or DMF control for 18 hours or 4 hours, followed by stimulation with LPS (2 ug/ml or 250 ng/ml) for 4 hours in the presence of Golgiplug. BMDMs were then stained for intracellular TNF or IL-12 and analyzed by flow cytometry.
First, pro-inflammatory cytokine production in macrophages was investigated. […] In the DC study described herein, DCs were typically conditioned with indole during their development from bone marrow precursors in order to mimic the proximity of DC progenitor cells to indole in the intestinal microenvironment during development. […] BMDMs were treated for 18 hours with indole, followed by a 4 hour stimulation with either a very high (2 ug/ml) or low (250 ng/ml) dose of LPS.
Additionally, to determine if recently arrived macrophage precursors might also be affected, BMDMs were next treated for just 4 hours with indole, followed by a […] stimulation with the same LPS concentrations.
To address the question of indole and AhR dependence in macrophages, experiments using BMDMs derived from AhR-knockout mice were run alongside wild-type littermate controls. Specifically, flow cytometric analysis of BMDMs was performed on WT or AhR-KO mice and treated with indole or DMF control for 18 hours. BMDMs were stimulated for 4 hours with LPS (50 ng/ml) in the presence of Golgiplug, then stained for intracellular TNF (left panels) and IL-12 (right panels).
The inventors performed a series of assays where bone marrow derived macrophages (BMDMs), bone marrow derived dendritic cells (BMDCs), and splenic dendritic cells (splenic DCs), were exposed to a series of TDMMs, including indole, indole-3-acetate (I3AT), 5-hydroxyindole (5HI), and indole-3-pyruvate (I3P), as well as indole-3-carbinol (I3C; a plant derived compound) to be used for a positive control (1 mM for 24 hours). The BMDMs and BMDCs were stimulated with LPS for 4 hours and assayed at day 7 for expression of various pro-inflammatory cytokines. In a similar assay, the BMDMs and BMDCs were stimulated with LPS or CpG, respectively, for 15 minutes and assayed for pAKT and pERK signaling, which is a reflection of pro-inflammatory response.
Bone marrow was harvested as described above and cultured at a density of 1×10^6 cells in 10 ml complete media supplemented with 10 ng/ml M-CSF (Peprotech) in 100 mm×15 mm petri dishes. Media with cytokine was replenished on day 3. Adherent and semi-adherent cells were recovered on day 7, plated, and treated with indole prior to downstream experiments.
For orientation: In flow cytometry, cells or beads pass a laser one at a time.

Another experiment concerns naïve CD4+CD25− T cells. Briefly: DC-T cell co-culture, polyclonal stimulation: Foxp3+ Treg induction. Particulars: naïve T cells co-cultured 72 hours with BMDCs conditioned with indole. It is filed as cell-based, mouse. As to the method:
FIG. 15 is a set of FACS plots showing that indole-conditioned DCs preferentially induce Foxp3+ Tregs (polyclonal stimulation). Naïve wild-type CD4+CD25− T cells were sorted and co-cultured with indole- or DMF-conditioned BMDCs. Cells were cultured together for 72 hours in the presence of soluble α-CD3 (5 ug/ml) as well as TGF-β (2 ng/ml) with or without IL-2 (100 U/ml). Subsequently, cells were stained for the transcription factor Foxp3 and analyzed by flow cytometry. Shaded gray histograms represent unstained controls. Representative data from one of four experiments is shown.
To investigate whether indole-conditioned DCs preferentially induce Tregs, a co-culture system using FACS-sorted wild-type naïve CD4+CD25− T cells was employed. These naïve T cells were activated by antibodies against CD3 and CD28 in the presence of indole-conditioned BMDCs and cultured for 72 hours. Under this platform for polyclonal stimulation, a 2-fold increase in Treg induction in indole-DC cultures compared to controls was observed (FIG. 15). Additionally, the inventors pursued the same question in a more physiologically relevant model; i.e., under monoclonal T cell stimulation. […]

Consider `c1ccc2[nH]ccc2c1` [Indole, indole], for which, in the experiment with TNF (BMDMs from WT or AhR-KO mice, 1 mM indole 18 hours, LPS 50 ng/ml 4 hours), the “reduction of TNF production” value is listed as “approximately 2 fold”. Also, the TNF result with TNF (BMDMs, 1 mM TDMM 24 hours, LPS 1 ug/ml 4 hours) is “↓↓↓”. Further, the “inhibition of TNF production” value with TNF (BMDMs, 1 mM indole 18 hours, LPS 2 ug/ml or 250 ng/ml 4 hours) was about 2 fold. In the experiment with naïve CD4+CD25− T cells, the “increase in Treg induction compared to controls” value is recorded as 2 fold.
